What was measured:
Assay type in all cases: in vivo
Chilo suppressalis = test: Activity against Chilo suppressalis (striped rice stemborer), artificial diet, L2 larvae; settings: 144 h, application rate 200 ppm, 6 days after infestation, vs untreated, read-out: control in at least one of the three categories (mortality, anti-feedant effect, or growth inhibition)
Method: Example B1: Activity Against Chilo suppressalis (Striped Rice Stemborer)
24-well microtiter plates with artificial diet were treated with aqueous test solutions prepared from 10′000 ppm DMSO stock solutions by pipetting. After drying, the plates were infested with L2 larvae (6-8 per well). The samples were assessed for mortality, anti-feeding effect, and growth inhibition in comparison to untreated samples 6 days after infestation. Control of Chilo suppressalis by a test sample is given when at least one of the categories mortality, anti-feedant effect, and growth inhibition is higher than the untreated sample.

Spodoptera littoralis = test: Activity against Spodoptera littoralis (Egyptian cotton leaf worm), cotton leaf discs, L1 larvae; settings: foliar, 72 h, application rate 200 ppm, 3 days after infestation, vs untreated, read-out: control in at least one of the three categories (mortality, anti-feedant effect, or growth inhibition)
Method: Example B8: Activity Against Spodoptera littoralis (Egyptian Cotton Leaf Worm)
Cotton leaf discs were placed onto agar in 24-well microtiter plates and sprayed with aqueous test solutions prepared from 10′000 ppm DMSO stock solutions. After drying the leaf discs were infested with five L1 larvae. The samples were assessed for mortality, anti-feeding effect, and growth inhibition in comparison to untreated samples 3 days after infestation. Control of Spodoptera littoralis by a test sample is given when at least one of the categories mortality, anti-feedant effect, and growth inhibition is higher than the untreated sample.

Plutella xylostella = test: Activity against Plutella xylostella (diamond back moth), artificial diet, eggs; settings: 192 h, application rate 200 ppm, 8 days after infestation, vs untreated, read-out: control in at least one of the two categories (mortality or growth inhibition)
Method: Example B7: Activity Against Plutella xylostella (Diamond Back Moth)
24-well microtiter plates with artificial diet were treated with aqueous test solutions prepared from 10′000 ppm DMSO stock solutions by pipetting. After drying, Plutella eggs were pipetted through a plastic stencil onto a gel blotting paper and the plate was closed with it. The samples were assessed for mortality and growth inhibition in comparison to untreated samples 8 days after infestation. The following compounds gave an effect of at least 80% control in at least one of the two categories (mortality or growth inhibition) at an application rate of 200 ppm: P1, P2, P3, P4, P6, P7, P8, P9, P10, P11, P12, P13, P14, P15, P16, P17, P18, P19, P20, P21, P22, P23, P24, P25, P26, P27.

Myzus persicae [1] = test: Activity against Myzus persicae (green peach aphid), feeding/contact activity; settings: foliar, 144 h, application rate 200 ppm, 6 days after infestation, sunflower leaf discs, mixed ages
Method: Example B5: Activity Against Myzus persicae (Green Peach Aphid). Feeding/Contact Activity
Sunflower leaf discs were placed onto agar in a 24-well microtiter plate and sprayed with aqueous test solutions prepared from 10′000 ppm DMSO stock solutions. After drying, the leaf discs were infested with an aphid population of mixed ages. The samples were assessed for mortality 6 days after infestation.

Euschistus heros = test: Activity against Euschistus heros (neotropical brown stink bug), soybean leaves, N2 nymphs; settings: 120 h, application rate 200 ppm, 5 days after infestation, vs untreated, read-out: effect in at least one of the two categories (mortality or growth inhibition)
Method: Example B3: Activity Against Euschistus heros (Neotropical Brown Stink Bug)
Soybean leaves on agar in 24-well microtiter plates were sprayed with aqueous test solutions prepared from 10′000 ppm DMSO stock solutions. After drying the leaves were infested with N2 nymphs. The samples were assessed for mortality and growth inhibition in comparison to untreated samples 5 days after infestation.

Diabrotica balteata = test: Activity against Diabrotica balteata (corn root worm), maize sprouts, L2 larvae; settings: 96 h, application rate 200 ppm, 4 days after infestation, vs untreated, read-out: control in at least one of the two categories (mortality or growth inhibition)
Method: Example B2: Activity Against Diabrotica balteata (Corn Root Worm)
Maize sprouts placed onto an agar layer in 24-well microtiter plates were treated with aqueous test solutions prepared from 10′000 ppm DMSO stock solutions by spraying. After drying, the plates were infested with L2 larvae (6 to 10 per well). The samples were assessed for mortality and growth inhibition in comparison to untreated samples 4 days after infestation.

Myzus persicae [2] = test: Activity against Myzus persicae (green peach aphid), intrinsic activity; settings: 120 h, test rate 12 ppm, 5 days after infestation, sucrose solution through Parafilm
Excerpt: Example B6: Activity Against Myzus persicae (Green Peach Aphid). Intrinsic Activity
Test compounds prepared from 10′000 ppm DMSO stock solutions were applied by pipette into 24-well microtiter plates and mixed with sucrose solution. The plates were closed with a stretched Parafilm. A plastic stencil with 24 holes was placed onto the plate and infested pea seedlings were placed directly on the Parafilm. The infested plate was closed with a gel blotting paper and another plastic stencil and then turned upside down. The samples were assessed for mortality 5 days after infestation.

Tetranychus urticae = test: Activity against Tetranychus urticae (two-spotted spider mite), feeding/contact activity; settings: foliar, 192 h
Method: Example B9: Activity Against Tetranychus urticae (Two-Spotted Spider Mite). Feeding/Contact Activity
Bean leaf discs on agar in 24-well microtiter plates were sprayed with aqueous test solutions prepared from 10′000 ppm DMSO stock solutions. After drying the leaf discs were infested with a mite population of mixed ages. The samples were assessed for mortality on mixed population (mobile stages) 8 days after infestation.

CCn1nc(-n2ncnc2[C@H](C)Nc2ncnc3c(Cl)cc(C(F)(F)F)cc23)ccc1=O [P17, 6-[5-[(1S)-1-[[8-chloro-6-(trifluoromethyl)quinazolin-4-yl]amino]ethyl]-1,2,4-triazol-1-yl]-2-ethyl-pyridazin-3-one]
≥ 80%: percent control (mortality, anti-feedant effect or growth inhibition) at 200 ppm (Chilo suppressalis) | percent control (mortality, anti-feedant effect or growth inhibition) at 200 ppm (Spodoptera littoralis) | percent control (mortality or growth inhibition) at 200 ppm (Plutella xylostella) | mortality at 200 ppm (Myzus persicae [1]) | percent effect (mortality or growth inhibition) at 200 ppm (Euschistus heros) | percent control (mortality or growth inhibition) at 200 ppm (Diabrotica balteata) | mortality at 12 ppm (Myzus persicae [2])

C[C@@H](c1ncnn1-c1ccc(=O)n(C)n1)N(C)c1ncnc2c(C(F)(F)F)cc(Cl)cc12 [P6, 6-[5-[(1S)-1-[[6-chloro-8-(trifluoro-methyl)quinazolin-4-yl]-methyl-amino]ethyl]-1,2,4-triazol-1-yl]-2-methyl-pyr-idazin-3-one]
≥ 80%: percent control (mortality, anti-feedant effect or growth inhibition) at 200 ppm (Chilo suppressalis) | percent control (mortality, anti-feedant effect or growth inhibition) at 200 ppm (Spodoptera littoralis) | mortality at 200 ppm (Tetranychus urticae) | percent control (mortality or growth inhibition) at 200 ppm (Plutella xylostella) | mortality at 200 ppm (Myzus persicae [1]) | percent effect (mortality or growth inhibition) at 200 ppm (Euschistus heros) | percent control (mortality or growth inhibition) at 200 ppm (Diabrotica balteata) | mortality at 12 ppm (Myzus persicae [2])

CC(Nc1ncnc2c(C(F)(F)F)cc(Cl)cc12)c1nccnc1-c1ccc(=O)n(C)n1 (stereo not drawn) [P10, 6-[3-[1-[[6-chloro-8-(trifluorometh-yl)quinazolin-4-yl]amino]ethyl]pyr-azin-2-yl]-2-methyl-pyridazin-3-one]
≥ 80%: percent control (mortality, anti-feedant effect or growth inhibition) at 200 ppm (Chilo suppressalis) | percent control (mortality, anti-feedant effect or growth inhibition) at 200 ppm (Spodoptera littoralis) | percent control (mortality or growth inhibition) at 200 ppm (Plutella xylostella) | mortality at 200 ppm (Myzus persicae [1]) | percent effect (mortality or growth inhibition) at 200 ppm (Euschistus heros) | percent control (mortality or growth inhibition) at 200 ppm (Diabrotica balteata) | mortality at 12 ppm (Myzus persicae [2])

C[C@H](Nc1ncnc2c(C(F)(F)F)cc(Cl)cc12)c1ncnn1C1=NN(C)C(=O)CC1 [P9, 6-[5-[(1S)-1-[[6-chloro-8-(trifluoro-methyl)quinazolin-4-yl]amino]ethyl]-1,2,4-triazol-1-yl]-2-methyl-4,5-di-hydropyridazin-3-one]
≥ 80%: percent control (mortality, anti-feedant effect or growth inhibition) at 200 ppm (Chilo suppressalis) | percent control (mortality, anti-feedant effect or growth inhibition) at 200 ppm (Spodoptera littoralis) | percent control (mortality or growth inhibition) at 200 ppm (Plutella xylostella) | mortality at 200 ppm (Myzus persicae [1]) | percent effect (mortality or growth inhibition) at 200 ppm (Euschistus heros) | percent control (mortality or growth inhibition) at 200 ppm (Diabrotica balteata) | mortality at 12 ppm (Myzus persicae [2])

CC(c1nccnc1-c1ccc(=O)n(C)n1)N(C)c1ncnc2c(Cl)cc(C(F)(F)F)cc12 (stereo not drawn) [P12, 6-[3-[1-[[8-chloro-6-(trifluoromethyl)quinazolin-4-yl]-methyl-amino]ethyl]pyrazin-2-yl]-2-methyl-pyridazin-3-one]
≥ 80%: percent control (mortality, anti-feedant effect or growth inhibition) at 200 ppm (Chilo suppressalis) | percent control (mortality, anti-feedant effect or growth inhibition) at 200 ppm (Spodoptera littoralis) | percent control (mortality or growth inhibition) at 200 ppm (Plutella xylostella) | mortality at 200 ppm (Myzus persicae [1]) | percent effect (mortality or growth inhibition) at 200 ppm (Euschistus heros) | percent control (mortality or growth inhibition) at 200 ppm (Diabrotica balteata) | mortality at 12 ppm (Myzus persicae [2])

CCn1nc(-n2ncnc2[C@H](C)Nc2ncnc3c(C(F)(F)F)cc(Cl)cc23)ccc1=O [P19, 6-[5-[(1S)-1-[[6-chloro-8-(trifluoro-methyl)quinazolin-4-yl]amino]ethyl]-1,2,4-triazol-1-yl]-2-ethyl-pyridazin-3-one]
≥ 80%: percent control (mortality, anti-feedant effect or growth inhibition) at 200 ppm (Chilo suppressalis) | percent control (mortality, anti-feedant effect or growth inhibition) at 200 ppm (Spodoptera littoralis) | percent control (mortality or growth inhibition) at 200 ppm (Plutella xylostella) | mortality at 200 ppm (Myzus persicae [1]) | percent effect (mortality or growth inhibition) at 200 ppm (Euschistus heros) | percent control (mortality or growth inhibition) at 200 ppm (Diabrotica balteata) | mortality at 12 ppm (Myzus persicae [2])

C[C@H](Nc1ncnc2c(C(F)(F)F)cc(C(F)(F)F)cc12)c1ncnn1C1=NN(C)C(=O)CC1 [P7, 6-[5-[(1S)-1-[[6,8-bis(trifluoromethyl)quinazolin-4-yl]amino]ethyl]-1,2,4-triazol-1-yl]-2-methyl-4,5-dihydropyridazin-3-one]
≥ 80%: percent control (mortality, anti-feedant effect or growth inhibition) at 200 ppm (Chilo suppressalis) | percent control (mortality, anti-feedant effect or growth inhibition) at 200 ppm (Spodoptera littoralis) | percent control (mortality or growth inhibition) at 200 ppm (Plutella xylostella) | mortality at 200 ppm (Myzus persicae [1]) | percent effect (mortality or growth inhibition) at 200 ppm (Euschistus heros) | percent control (mortality or growth inhibition) at 200 ppm (Diabrotica balteata) | mortality at 12 ppm (Myzus persicae [2])

CC(c1nccnc1-c1ccc(=O)n(C)n1)N(C)c1ncnc2c(C(F)(F)F)cc(Cl)cc12 (racemic) [P21, 6-[3-[1-[[6-chloro-8-(trifluoromethyl)quinazolin-4-yl]-methyl-amino]ethyl]pyrazin-2-yl]-2-methyl-pyridazin-3-one]
≥ 80%: percent control (mortality, anti-feedant effect or growth inhibition) at 200 ppm (Chilo suppressalis) | percent control (mortality, anti-feedant effect or growth inhibition) at 200 ppm (Spodoptera littoralis) | percent control (mortality or growth inhibition) at 200 ppm (Plutella xylostella) | mortality at 200 ppm (Myzus persicae [1]) | percent effect (mortality or growth inhibition) at 200 ppm (Euschistus heros) | percent control (mortality or growth inhibition) at 200 ppm (Diabrotica balteata) | mortality at 12 ppm (Myzus persicae [2])

CCn1nc(-n2ncnc2[C@H](C)N(C)c2ncnc3c(C(F)(F)F)cc(Cl)cc23)ccc1=O [P15, 6-[5-[(1S)-1-[[6-chloro-8-(trifluoro-methyl)quinazolin-4-yl]-methyl-amino]ethyl]-1,2,4-triazol-1-yl]-2-ethyl-pyrid-azin-3-one]
≥ 80%: percent control (mortality, anti-feedant effect or growth inhibition) at 200 ppm (Chilo suppressalis) | percent control (mortality, anti-feedant effect or growth inhibition) at 200 ppm (Spodoptera littoralis) | percent control (mortality or growth inhibition) at 200 ppm (Plutella xylostella) | mortality at 200 ppm (Myzus persicae [1]) | percent effect (mortality or growth inhibition) at 200 ppm (Euschistus heros) | percent control (mortality or growth inhibition) at 200 ppm (Diabrotica balteata) | mortality at 12 ppm (Myzus persicae [2])

CC(Nc1ncnc2c(Cl)cc(C(F)(F)F)cc12)c1nccnc1-c1ccc(=O)n(C)n1 (stereo not drawn) [P13, 6-[3-[1-[[8-chloro-6-(trifluoromethyl)quinazolin-4-yl]amino]ethyl]pyrazin-2-yl]-2-methyl-pyridazin-3-one]
≥ 80%: percent control (mortality, anti-feedant effect or growth inhibition) at 200 ppm (Chilo suppressalis) | percent control (mortality, anti-feedant effect or growth inhibition) at 200 ppm (Spodoptera littoralis) | percent control (mortality or growth inhibition) at 200 ppm (Plutella xylostella) | mortality at 200 ppm (Myzus persicae [1]) | percent effect (mortality or growth inhibition) at 200 ppm (Euschistus heros) | percent control (mortality or growth inhibition) at 200 ppm (Diabrotica balteata) | mortality at 12 ppm (Myzus persicae [2])

C[C@@H](c1ncnn1C1=NN(C)C(=O)CC1)N(C)c1ncnc2c(C(F)(F)F)cc(Cl)cc12 [P24]
≥ 80%: percent control (mortality, anti-feedant effect or growth inhibition) at 200 ppm (Chilo suppressalis) | percent control (mortality, anti-feedant effect or growth inhibition) at 200 ppm (Spodoptera littoralis) | percent control (mortality or growth inhibition) at 200 ppm (Plutella xylostella) | mortality at 200 ppm (Myzus persicae [1]) | percent effect (mortality or growth inhibition) at 200 ppm (Euschistus heros) | percent control (mortality or growth inhibition) at 200 ppm (Diabrotica balteata) | mortality at 12 ppm (Myzus persicae [2])
